Legend:
Rattus norvegicus [1] = assay: Percent inhibition of sorbitol accumulation in the sciatic nerve of streptozotocin (STZ)- induced diabetic rats at peroral dose of 30 mg/kg (preventive effect); format: functional; settings: route oral
Rattus norvegicus [2] = assay: Percent inhibition of sorbitol accumulation in the lens of streptozotocin (STZ)-induced diabetic rats at peroral dose of 30 mg/kg (preventive effect); format: functional; settings: Lens of camera-type eye, route oral
[3] = molecular target: Aldo-keto reductase family 1 member B1 (Sus scrofa, UniProt P80276); assay: Inhibitory concentration against porcine lens aldose reductase (AR) with DL-glyceraldehyde as the substrate
Rattus norvegicus [4] = assay: Inhibition of sorbitol accumulation in the lens in diabetic rats at peroral dose of 30 mg/kg (curative effect); format: functional; settings: Lens of camera-type eye, route oral
Rattus norvegicus [5] = assay: Inhibition of sorbitol accumulation in the sciatic nerve in diabetic rats at peroral dose of 30 mg/kg (curative effect); format: functional; settings: route oral
[6] = molecular target: Aldo-keto reductase family 1 member B1 (Sus scrofa) (UniProt P80276); assay: In vitro percent inhibition of porcine lens aldose reductase (AR) at 10e -7 M with DL-glyceraldehyde as the substrate
Rattus norvegicus [7] = assay: Percent inhibition of sorbitol accumulation in the sciatic nerve of streptozotocin (STZ)- induced diabetic rats at peroral dose of 30 mg/kg (curative effect); format: functional; settings: route oral
Rattus norvegicus [8] = assay: Percent inhibition of sorbitol accumulation in the lens of streptozotocin (STZ)-induced diabetic rats at peroral dose of 30 mg/kg (curative effect); format: functional; settings: Lens of camera-type eye, route oral

IC50 [3] [nM]	SMILES	inhibition in vivo at 30 mg/kg (Rattus norvegicus [1]) [%]	inhibition in vivo at 30 mg/kg (Rattus norvegicus [2]) [%]	ED50 (Rattus norvegicus [4]) [mg/kg]	ED50 (Rattus norvegicus [5]) [mg/kg]	other results
	O=C(O)CN(CCc1ccccc1)C(=O)CCc1nc2c(F)c(F)cc(F)c2s1	65	-2			
7	O=C(O)Cc1cc(Cl)cc(Cc2nc3c(F)c(F)cc(F)c3s2)c1			7.8	0.46	
	O=C(O)CC1Sc2ccccc2N(Cc2nc3c(F)c(F)cc(F)c3s2)C1=O (stereo not drawn)			> 10	1.8	
	O=C(O)CN(C(=S)CCc1nc2c(F)c(F)cc(F)c2s1)c1ccccc1	< 64	12			
	O=C(O)CCCc1nc2c(F)c(F)cc(F)c2s1					inhibition [6]: 1%
9.3	O=C(O)Cc1cccc(Cc2nc3c(F)c(F)cc(F)c3s2)c1Cl			0.71	0.12	
11	O=C(O)Cc1cc(I)cc(Cc2nc3c(F)c(F)cc(F)c3s2)c1			> 10	> 10	
	O=C(O)CN(Cc1ccccc1)C(=S)CCc1nc2c(F)c(F)cc(F)c2s1	65	23			
	O=C(O)CCCCCCc1nc2c(F)c(F)cc(F)c2s1					inhibition [6]: 11%
	O=C(O)Cc1cc(Br)cc(Cc2nc3c(F)c(F)cc(F)c3s2)c1			9.8	0.68	
	O=C(O)Cc1cc(Cc2nc3c(F)c(F)cc(F)c3s2)cc(C(=O)O)c1			> 10	> 10	
	CN(CC(=O)O)C(=O)CCc1nc2c(F)c(F)cc(F)c2s1	61	30			
8.8	O=C(O)Cc1cc(F)cc(Cc2nc3c(F)c(F)cc(F)c3s2)c1			10	0.32	
16	COc1ccc2c(C(=S)N(C)CC(=O)O)cccc2c1C(F)(F)F [TOLRESTAT]	84	36			
38	O=C(O)Cc1ccc(Cc2nc3c(F)c(F)cc(F)c3s2)cc1					
	O=C(O)CCCCc1nc2c(F)c(F)cc(F)c2s1					inhibition [6]: 35%
	CN(CC(=O)O)C(=S)CCc1nc2c(F)c(F)cc(F)c2s1	48	58			
	Cc1cc(CC(=O)O)cc(Cc2nc3c(F)c(F)cc(F)c3s2)c1			1.6	0.25	
	O=C(O)Cc1cccc(Cc2nc3c(F)c(F)cc(F)c3s2)c1			> 10	1.5	
	O=C(O)CN(C(=O)CCc1nc2c(F)c(F)cc(F)c2s1)c1ccccc1	54	80			
	O=C(O)CN(Cc1ccccc1)C(=O)CCc1nc2c(F)c(F)cc(F)c2s1	75	54			
12	O=C(O)Cn1c(=O)n(Cc2ccc(Br)cc2F)c(=O)c2ccc(Cl)cc21 [ZENARESTAT]	89	30			inhibition in vivo at 30 mg/kg (Rattus norvegicus [7]): 76%; inhibition in vivo at 30 mg/kg (Rattus norvegicus [8]): 21%
50	O=C(O)CCCCCc1nc2c(F)c(F)cc(F)c2s1					inhibition [6]: 71%
12	CN(C)c1cc(CC(=O)O)cc(Cc2nc3c(F)c(F)cc(F)c3s2)c1.Cl			> 10	0.53	

Source: ChEMBL document CHEMBL1130466, “Benzothiazol-2-ylcarboxylic acids with diverse spacers: A novel class of potent, orally active aldose reductase inhibitors” (Bioorg Med Chem Lett, 1997)
